Structures can show the parent of a compound that is named as a salt.
target: T1, human orexin-2 (hOX2) receptor (Homo sapiens, UniProt O43614); assay: Intracellular Ca2+ mobilization assay (FLIPR), CHO(dHFr-) cells expressing hOX2, orexin-A at EC80 as agonist; assay type: cell-based; conditions: Kb=IC50/(1+[A]/EC50); CHO(dHFr-)-OX2R cells, antagonist applied 25 min before orexin-A EC80
T1 construct: expressed in transfected cells
T1 sequence (O43614 1-444): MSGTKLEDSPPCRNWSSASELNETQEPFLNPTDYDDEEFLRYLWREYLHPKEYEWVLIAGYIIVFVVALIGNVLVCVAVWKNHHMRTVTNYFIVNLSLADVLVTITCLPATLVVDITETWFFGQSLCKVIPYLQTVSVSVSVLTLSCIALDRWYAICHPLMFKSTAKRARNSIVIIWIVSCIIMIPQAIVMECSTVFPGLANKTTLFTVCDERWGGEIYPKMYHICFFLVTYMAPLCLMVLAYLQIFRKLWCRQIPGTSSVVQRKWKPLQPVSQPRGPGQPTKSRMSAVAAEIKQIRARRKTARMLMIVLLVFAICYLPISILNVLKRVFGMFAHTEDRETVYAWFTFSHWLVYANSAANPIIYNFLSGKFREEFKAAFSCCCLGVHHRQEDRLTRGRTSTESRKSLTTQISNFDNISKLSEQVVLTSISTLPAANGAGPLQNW
In short: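 Fluo-4-loaded CHO(dHFr−) cells stably expressing hOX2 were preincubated 25 min at 37 °C with antagonist (11 concentrations, 0.0001–10 μM), then challenged with orexin-A at its daily-determined EC80. Peak fluorescence over basal read by FLIPR; IC50 from Hill fit, Kb via Kb=IC50/(1+[A]/EC50).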

| Compound | Kb [µM] |
| --- | --- |
| Cc1ccc(N(CCc2c(F)cc(C(F)(F)F)c(F)c2F)C(=O)/C(=N/O)c2ccccc2)cc1C [Example 211, N-(3,4-Dimethyl-phenyl)-2-[hydroxyimino]-2-phenyl-N-[2-(2,3,6-trifluoro-4-trifluoromethyl-phenyl)-ethyl]-acetamide] | 0.0222 |
| Cc1ccc(N(CCc2ccc(F)c(F)c2)C(=O)C(N)c2ccc(Cl)s2)cc1C (centres unmarked) [Example 214, 2-Amino-2-(5-chloro-thiophen-2-yl)-N-[2-(3,4-difluoro-phenyl)-ethyl]-N-(3,4-dimethyl-phenyl)-acetamide hydrochloride] | 0.0966 |
| Cc1ccc(N(CCc2ccc(F)c(F)c2)C(=O)C(N)c2ccsc2)cc1C (centres unmarked) [Example 216, 2-Amino-N-[2-(3,4-difluoro-phenyl)-ethyl]-N-(3,4-dimethyl-phenyl)-2-thiophen-3-yl-acetamide hydrochloride] | 0.0302 |
| Cc1ccc(N(CCc2ccc(C(F)(F)F)cc2)C(=O)Cn2c(C)nc3ccccc32)cc1C [Example 236, N-(3,4-Dimethyl-phenyl)-2-(2-methyl-benzoimidazol-1-yl)-N-[2-(4-trifluoromethyl-phenyl)-ethyl]-acetamide] | 0.076 |
| N[C@H](C(=O)N(CCc1ccc(F)cc1)c1ccc2c(c1)CCO2)c1ccccc1 [Example 239, (S)-2-Amino-N-(2,3-dihydro-benzofuran-5-yl)-N-[2-(4-fluoro-phenyl)-ethyl]-2-phenyl-acetamide hydrochloride] | 0.025 |
| N[C@H](C(=O)N(CCc1ccc(F)cc1)c1ccc2c(c1)OCC2)c1ccccc1 [Example 243, (S)-2-Amino-N-(2,3-dihydro-benzofuran-6-yl)-N-[2-(4-fluoro-phenyl)-ethyl]-2-phenyl-acetamide hydrochloride] | 0.0604 |
| CCc1ccc(N(CCc2ccc(F)cc2)C(=O)[C@@H](N)c2ccccc2)cc1 [Example 244, (S)-2-Amino-N-(4-ethyl-phenyl)-N-[2-(4-fluoro-phenyl)-ethyl]-2-phenyl-acetamide hydrochloride] | 0.049 |

Results, then the compound that gave them:

| Kb [µM] | Compound |
| --- | --- |
| 0.0077 | Cc1ccc(N(CCc2ccc(OC(F)F)cc2)C(=O)[C@@H](N)c2ccccc2)cc1C [Example 210, (S)-2-Amino-N-[2-(4-difluoromethoxy-phenyl)-ethyl]-N-(3,4-dimethyl-phenyl)-2-phenyl-acetamide hydrochloride] |
| 0.0343 | Cc1ccc(N(CCc2ccc(C#N)cc2)C(=O)[C@@H](N)c2ccccc2)cc1C [Example 212, (S)-2-Amino-N-[2-(4-cyano-phenyl)-ethyl]-N-(3,4-dimethyl-phenyl)-2-phenyl-acetamide hydrochloride] |
| 0.0555 | Cc1ccc(N(CCc2ccc(C(F)(F)F)cc2)C(=O)C(=O)c2ccccc2)cc1C [Example 218, N-(3,4-Dimethyl-phenyl)-2-oxo-2-phenyl-N-[2-(4-trifluoromethyl-phenyl)-ethyl]-acetamide] |
| 0.0353 | Cc1ccc(CCN(C(=O)[C@@H](NC(=O)CN)c2ccccc2)c2ccc(C)c(C)c2)cc1 [Example 248, (S)-2-(2-Amino-acetylamino)-N-(3,4-dimethyl-phenyl)-2-phenyl-N-(2-p-tolyl-ethyl)-acetamide] |
| 0.082 | Cc1ccc(CCN(C(=O)[C@@H](NC(=O)[C@@H](N)c2ccccc2)c2ccccc2)c2ccc(C)c(C)c2)cc1 [Example 249, (S)-2-((S)-2-Amino-2-phenyl-acetylamino)-N-(3,4-dimethyl-phenyl)-2-phenyl-N-(2-p-tolyl-ethyl)-acetamide] |
| 0.0102 | Cc1ccc(CCN(C(=O)[C@@H](NC(=O)[C@H](C)N)c2ccccc2)c2ccc(C)c(C)c2)cc1 [Example 251, (S)-2-Amino-N-{(S)-[(3,4-dimethyl-phenyl)-(2-p-tolyl-ethyl)-carbamoyl]-phenyl-methyl}-propionamide] |

system: rat; assay: not given; conditions: intracerebroventricular (icv) administration; cited from earlier work

| Compound | reduction of total REM sleep [%] |
| --- | --- |
| OX-A: "orexin-A/hypocretin1 (OX-A, 33 amino acids)", hypothalamic neuropeptide; "Orexin A ... was used as agonist" (QPLPDCCRQKTCSCRLYELLHGAGNHAAGILTL; Orexin-A; UniProt O43612 34-66, looked up) | 84 |
